The results in this text go back to patent US10183962B2, “Synthetic oligomers of Neisseria meningitis serogroup X and process of preparing them” (MSD WELLCOME TRUST HILLEMAN LA[…]. LTD., priority 2014, dated 2019).

The subject of the assay is rabbit antiserum against N. meningitidis serogroup X (anti-Men-X antibodies binding to bacterial Men-X polysaccharide). As to the kind of experiment: competition (inhibition) ELISA, antigenicity of synthetic Men-X tetramer and its TT conjugate. The settings on record: antigen at 10-1000 μg oligosaccharide/ml; antiserum diluted eight thousand fold; relative to no antigen control; FIG. 1, alpha anomer, triplicate. For orientation: In an ELISA, binding on a coated surface is turned into a signal by an enzyme label.

For “6-Aminohexyl (2-acetamido-2-deoxy-α-D-glucopyranosyl phosphate)-(1→4)-(2-acetamido-2-deoxy-α-D-glucopyranosyl phosphate)-(1→4)-(2-acetamido-2-deoxy-α-D-glucopyranosyl phosphate)-(1→4)-2-acetamido-2-deoxy-α-D-glucopyranoside, tris-sodium salt [Men X Tetramer 1]”, the “percentage inhibition of binding of anti-Men-X antibodies to bacterial Men-X polysaccharide coated on plate” value is recorded as “up to 68%”.
